Test results reported in US9725484B2, “Methods and compositions for the treatment of bone remodeling disorders” (THE REGENTS OF THE UNIVERSITY OF MICHIGAN, priority 2013, dated 2017).
One block for each molecule: values may come before it. Starred links: 1 amine or outer side, 2 acyl side, 3 side chain; linkers in the order of their positions; H or OH if unused. Positions of bridges follow the written chain, without caps; N, C: chain ends. Non-standard residues stand in square brackets, D forms with d. Residues, ends and D or L forms follow the SMILES beside them. No end group written: not given here. CO = O=C([*:1])[*:2]; Nlys = NCCCCNCC(=O)O

Assays:
[1] = test system: SE-activated NO signaling; assay: Signal transduction assay: inhibition of SE-activated NO signaling; format: cell-based
Method: (§1) Surface plasmon resonance (SPR) and signal transduction assays were performed as previously described (Holoshitz et al., 2012; supra; Ling et al., 2010. PLoS ONE 5: e11703; Ling et al., 2012 Arthritis Rheum.). In vitro assays for OC differentiation, using primary bone marrow cells (BMCs) isolated from femurs and tibias, or PBMCs isolated from healthy blood donors were performed as previously described (Holoshitz et al., 2012; supra).

recombinant CRT = molecular target: T1, recombinant CRT (Mus musculus, UniProt P14211); assay: Surface plasmon resonance (SPR) binding assay: binding to CRT and competitive inhibition of SE ligand 65-79*0401 binding; details: for Potency of competitive inhibition of SE ligand binding to CRT: result in words
T1 construct: made in house
T1 sequence (P14211 18-416): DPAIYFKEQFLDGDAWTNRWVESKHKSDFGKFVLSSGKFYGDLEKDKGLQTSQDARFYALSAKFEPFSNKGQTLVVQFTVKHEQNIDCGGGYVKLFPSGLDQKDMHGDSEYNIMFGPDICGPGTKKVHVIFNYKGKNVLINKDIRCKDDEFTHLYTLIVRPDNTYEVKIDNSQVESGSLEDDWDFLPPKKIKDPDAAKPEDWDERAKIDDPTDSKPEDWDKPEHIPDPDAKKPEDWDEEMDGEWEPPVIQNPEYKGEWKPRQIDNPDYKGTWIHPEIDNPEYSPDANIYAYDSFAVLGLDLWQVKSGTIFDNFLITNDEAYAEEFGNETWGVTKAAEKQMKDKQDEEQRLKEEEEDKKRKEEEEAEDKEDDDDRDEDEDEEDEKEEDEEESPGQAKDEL
Excerpt: Ficoll-Paque™, 4,5-Diaminofluorescein Diacetate (DAF-2 DA), 5-(and -6)-chloromethyl-2′,7′ dichlorodihydrofluorescein (CM-H2DCFDA), macrophage colony-stimulating factor (M-CSF), RANKL, denatured chicken collagen type II (CII), and complete Freund's Adjuvant (CFA) were purchased from previously listed sources. All other commercial reagents were purchased from Sigma (St Louis, Mo.). Linear peptides were synthesized and purified (>90%) as previously described (Ling et al., 2006 supra; Ling et al., 2007 Arthritis Res Ther 9: R5; Ling et al., 2007 The Journal of Immunology 179: 6359-6367; De Almeida et al., supra). Peptidomimetics were prepared by backbone cyclization (Kotake et al., 1999 J. Clin. Invest. 103: 1345-1352) of a 5mer peptide carrying the sequence DKCLA (SEQ ID NO: 1). Recombinant mouse CRT was purified as described (Ling and Holoshitz. 2007 The Journal of Immunology 179: 6359-6367).
as §1

CIA [2] = details: in vivo; cited from earlier work
rodent cells = assay: Literature: in vitro inhibition in rodent cells (Fridman et al.); format: cell-based
[3] = test system: SE-activated OC differentiation in human cells (PBMCs); assay: In vitro OC differentiation assay, human PBMCs; format: cell-based; details: FIG. 2D
Method: Isolation of human peripheral blood mononuclear cells (PBMCs) and culture of M1 fibroblasts were previously described (Holoshitz et al., 2012, J. Immunol.). DBA/1 mice, 6 to 10 weeks old, were purchased from the Jackson Laboratory (Bar Harbor, Me.). Mice were maintained and housed at the University of Michigan-Unit for Laboratory Animal Medicine facility, and all experiments were performed in accordance with protocols approved by University of Michigan Committee on Use and Care of Animals.
as §1

[4] = test system: osteoclastogenesis in mouse bone marrow cell cultures; assay: In vitro OC differentiation assay, mouse bone marrow cell cultures; format: cell-based; details: FIG. 2E; for Inhibition of basal osteoclastogenesis: mouse bone marrow cell cultures; for Inhibition of SE-activated OC differentiation: mouse cells
Method: as §1

osteoclastogenesis = assay: In vitro osteoclastogenesis / OC differentiation, cells not given; format: cell-based
Method: as §1

CIA [5] = assay: Collagen-induced arthritis (CIA) in DBA/1 mice; format: in vivo, mouse
Method: DBA/1 mice (7-10 week old) were immunization as described (Holoshitz, 2012, J. Immunol.) with chicken CII in CFA. In brief, 50 μl of an emulsion containing 100 μg of CII in 25 μl of 0.05 M acetic acid and 25 μl of CFA was injected intradermally at the base of the tail. Mice were injected once per week intraperitoneally with either 1 or 10 pg (HS4-4)c Trp at in 50 μl of PBS. Arthritis severity was determined as previously described (Holoshitz, 2012, J. Immunol.), using a visual scoring system on a 4-point scale for each paw: 0=no arthritis, 1=swelling and redness confined to digits, 2=minor swelling and redness spreading from the digits to the distal paw, and 3=major swelling and redness extending proximally from the paw.
Limbs were dissected and decalcified in 10% EDTA for 14 days at 4° C. After decalcification, the specimens were processed for paraffin embedding and serial sectioned. The histological sections were deparaffinized, rehydrated and stained with hematoxylin and eosin (H&E), or for tartrate-resistant acid phosphatase (TRAP) activity using a commercial kit (Kamiya Biomedical Company, Seattle, Wash.). To determine OC abundance, TRAP-positive multinucleated cells were counted. Data represent mean±SEM of the total number of OCs in front and rear paws+knees. Bone damage was evaluated by radiography and micro-computed tomography (micro-CT) as previously described (Holoshitz, 2012, J. Immunol.).

[6] = molecular target: T2, recombinant mouse CRT (calreticulin) (mouse, UniProt P14211 18-416, limits assumed); assay: SPR, peptide as analyte, recombinant CRT immobilized
T2 construct: also called recombinant CRT
T2 sequence (looked up): T1 sequence (P14211 18-416)

IC50 [1]: 560 nM
Molecule: HS(4-6)c Trp: backbone cyclic DKCLA (cDKCLA) peptidomimetic; cyclization linker m is 4 and n is 6 (bridge (positions not given here); not fully specified (bridges); also: backbone cyclized, linker m=4, n=6, 'Trp' in name unexplained)

IC50 [1]: 35000 nM | Binding to CRT (recombinant CRT; peptide in the analyte, CRT immobilized on the biosensor chip): bound to CRT | Potency of competitive inhibition of SE ligand binding to CRT (recombinant CRT): low-μM-range
Molecule: DKCLA [Linear DKCLA]
Block of NO induction by the SE ligand ([1]; result in words): completely blocked

IC50 [1]: 6.3 nM
Molecule: HS(6-4)c Trp: backbone cyclic DKCLA (cDKCLA) peptidomimetic; cyclization linker m is 6 and n is 4 (bridge (positions not given here); not fully specified (bridges); also: backbone cyclized, linker m=6, n=4, 'Trp' in name unexplained)

Molecule: C1=C/COCc2cc(ccc2OCCN2CCCC2)Nc2nccc(n2)-c2cccc(c2)COC/1 [SB1518]
Dose range with therapeutic efficacy in CIA (CIA [2]): mg/kg-range

IC50 [1]: 770 nM
Molecule: HS(6-2)c Trp: backbone cyclic DKCLA (cDKCLA) peptidomimetic; cyclization linker m is 6 and n is 2 (bridge (positions not given here); not fully specified (bridges); also: backbone cyclized, linker m=6, n=2, 'Trp' in name unexplained)

Molecule: CN1CCN(c2cccc(Nc3nc4c(-c5ccc(S(C)(=O)=O)cc5)cccn4n3)c2)CC1 [CEP-33779]
Dose range with therapeutic efficacy in CIA (CIA [2]): mg/kg-range

Molecule: CCS(=O)(=O)N1CC(CC#N)(n2cc(-c3ncnc4[nH]ccc34)cn2)C1 [INCB028050]
Potency lower than compound HS(4-4)c Trp (rodent cells): ~1000 fold | Dose range with therapeutic efficacy in CIA (CIA [2]): mg/kg-range

IC50 [1]: 0.0016 nM | Potency of competitive inhibition of SE ligand binding to CRT (recombinant CRT): low-pM
Molecule: C[C@H](NC(=O)CN1CCCCNC(=O)NCCCCN(C(=O)[C@@H](N)Cc2c[nH]c3ccccc23)CC(=O)N[C@@H](CC(=O)O)C(=O)N[C@@H](CCCCN)C(=O)N[C@@H](CS)C1=O)C(N)=O [HS(4-4)c Trp] (H-W[Nlys]DKC[Nlys]A-NH2; linker 2-6 via CO)
SEAL potency relative to the linear DKCLA peptide [1]: 1,000,000 times | Concentrations blocking the SE signaling effects ([1]; result in words): low-pM | Inhibition of SE-activated OC differentiation [3]: sub-pM | Inhibition of basal osteoclastogenesis [4]: sub-pM | Inhibition of SE-activated OC differentiation [4]: sub-pM | Concentrations with inhibitory effect on OC differentiation (osteoclastogenesis; result in words): sub-to-low-pM | Dose range achieving disease amelioration effects (CIA [5]; mouse, in vivo): ng/kg-range | In vivo potency relative to INCB028050, SB1518, CEP-33779 (CIA [5]; mouse, in vivo): 1,000,000 fold | Arthritis incidence (CIA [5]; weekly ip): lower incidence | Arthritis severity (CIA [5]; weekly ip): significantly milder | Bone destruction, micro-CT imaging of joints (CIA [5]; weekly ip): lesser extent of bone destruction | OC abundance, synovial tissue histology (TRAP) (CIA [5]; weekly ip): lower OC abundance | Arthritis onset (CIA [5]; weekly ip, low-picogram doses): delayed onset

IC50 [1]: 4300 nM
Molecule: HS(3-4)c Trp (DKCLA; bridge (positions not given here); not fully specified (bridges); also: backbone cyclized, linker m=3, n=4, 'Trp' in name unexplained)
Inhibition of osteoclastogenesis (osteoclastogenesis; FIG. 2F): does not inhibit | Arthritis incidence (CIA [5]; weekly ip): does not inhibit | Arthritis severity (CIA [5]; weekly ip): does not inhibit

IC50 [1]: 0.0018 nM
Molecule: HS(3-3)c Trp: backbone cyclic DKCLA (cDKCLA) peptidomimetic; cyclization linker m is 3 and n is 3 (bridge (positions not given here); not fully specified (bridges); also: backbone cyclized, linker m=3, n=3, 'Trp' in name unexplained)
Inhibition of SE-activated OC differentiation [3]: sub-pM | Inhibition of basal osteoclastogenesis [4]: sub-pM | Inhibition of SE-activated OC differentiation [4]: sub-pM

binding result [6]: binds
B1: linear DKCLA (SEQ ID NO: 1) peptide (peptide)
peptide: DKCLA
notes: Synthetic linear 5mer; analyte in SPR
